Organism: Rattus norvegicus
Experiment: DrugMatrix - Regimen: Daily Repeat
Type: toxicity, organism-based, Sprague-Dawley
Set-up: regimen Daily Repeat, gender Male, age 6-8 weeks
Settings: in vivo, iv, vehicle 100 % SALINE; for ABSOLUTE BASOPHIL / ABSOLUTE EOSINOPHIL / ABSOLUTE LYMPHOCYTE / ABSOLUTE MONOCYTE / ABSOLUTE SEGMENTED NEUTROPHIL / BASOPHIL / EOSINOPHIL / ERYTHROCYTE COUNT / HEMATOCRIT / HEMOGLOBIN / LEUKOCYTE COUNT / LYMPHOCYTE / MEAN CORPUSCULAR HEMOGLOBIN / MEAN CORPUSCULAR HEMOGLOBIN CONCENTRATION / MEAN CORPUSCULAR VOLUME / MONOCYTE / NEUTROPHIL / NUCLEATED RED BLOOD CELLS: tissue Blood; for ALANINE AMINOTRANSFERASE / ALKALINE PHOSPHATASE / BLOOD UREA NITROGEN / CARBON DIOXIDE / CHOLESTEROL / CREATINE PHOSPHOKINASE / CREATININE / GLUCOSE / LACTATE DEHYDROGENASE / LIPASE / SODIUM / TOTAL BILIRUBIN / TOTAL PROTEIN / URIC ACID / ASPARTATE AMINOTRANSFERASE: tissue Plasma
[1] = 0 mg/kg, 72 h, dose level Control, time 3 day
[2] = 0 mg/kg, 120 h, dose level Control, time 5 day
[3] = 3 mg/kg, 72 h, dose level High, time 3 day

COc1cccc2c1C(=O)c1c(O)c3c(c(O)c1C2=O)C[C@@](O)(C(=O)CO)C[C@@H]3O[C@H]1C[C@H](N)[C@H](O)[C@H](C)O1 [DOXORUBICIN]
ABSOLUTE BASOPHIL [1]: 0 CELLS/uL | ABSOLUTE EOSINOPHIL [1]: 0 CELLS/uL | ABSOLUTE LYMPHOCYTE [1]: 7855.5 CELLS/uL | ABSOLUTE MONOCYTE [1]: 36.17 CELLS/uL | ABSOLUTE SEGMENTED NEUTROPHIL [1]: 575 CELLS/uL | BASOPHIL [1]: 0% | EOSINOPHIL [1]: 0% | ERYTHROCYTE COUNT [1]: 5.14 x10E6/uL | HEMATOCRIT [1]: 33.22% | HEMOGLOBIN [1]: 12.97 G/DL | LEUKOCYTE COUNT [1]: 8.47 x10E3/uL | LYMPHOCYTE [1]: 93.17% | MEAN CORPUSCULAR HEMOGLOBIN [1]: 25.28 pg | MEAN CORPUSCULAR HEMOGLOBIN CONCENTRATION [1]: 39.05 G/DL | MEAN CORPUSCULAR VOLUME [1]: 64.75 fL | MONOCYTE [1]: 0.33% | NEUTROPHIL [1]: 6.5% | NUCLEATED RED BLOOD CELLS [1]: 0 /100WBC | ALANINE AMINOTRANSFERASE [1]: 61.67 u/L | ALKALINE PHOSPHATASE [1]: 292.33 u/L | BLOOD UREA NITROGEN [1]: 11 mg/dL | CARBON DIOXIDE [1]: 34.67 mmol/L | CHOLESTEROL [1]: 71.17 mg/dL | CREATINE PHOSPHOKINASE [1]: 554.5 u/L | CREATININE [1]: 0.31 mg/dL | GLUCOSE [1]: 151 mg/dL | LACTATE DEHYDROGENASE [1]: 88.67 u/L | LIPASE [1]: 18.83 u/L | SODIUM [1]: 144.57 MEQ/L | TOTAL BILIRUBIN [1]: 0.17 mg/dL | TOTAL PROTEIN [1]: 5.8 G/DL | URIC ACID [1]: 0.52 mg/dL | ABSOLUTE BASOPHIL [2]: 0 CELLS/uL | ABSOLUTE EOSINOPHIL [2]: 53.33 CELLS/uL | ABSOLUTE LYMPHOCYTE [2]: 7739.83 CELLS/uL | ABSOLUTE MONOCYTE [2]: 74.83 CELLS/uL | ABSOLUTE SEGMENTED NEUTROPHIL [2]: 832 CELLS/uL | BASOPHIL [2]: 0% | EOSINOPHIL [2]: 0.67% | ERYTHROCYTE COUNT [2]: 5.55 x10E6/uL | HEMATOCRIT [2]: 34.77% | LEUKOCYTE COUNT [2]: 8.7 x10E3/uL | LYMPHOCYTE [2]: 89.17% | MEAN CORPUSCULAR HEMOGLOBIN [2]: 24.6 pg | MEAN CORPUSCULAR HEMOGLOBIN CONCENTRATION [2]: 39.2 G/DL | MEAN CORPUSCULAR VOLUME [2]: 62.78 fL | MONOCYTE [2]: 0.67% | NEUTROPHIL [2]: 9.5% | NUCLEATED RED BLOOD CELLS [2]: 0 /100WBC | ALANINE AMINOTRANSFERASE [2]: 50 u/L | ALKALINE PHOSPHATASE [2]: 271.17 u/L | ASPARTATE AMINOTRANSFERASE [2]: 84.17 u/L | BLOOD UREA NITROGEN [2]: 13.33 mg/dL | CARBON DIOXIDE [2]: 27 mmol/L | CHOLESTEROL [2]: 68 mg/dL | CREATINE PHOSPHOKINASE [2]: 313.67 u/L | CREATININE [2]: 0.21 mg/dL | GLUCOSE [2]: 163 mg/dL | LACTATE DEHYDROGENASE [2]: 75.67 u/L | LIPASE [2]: 11.5 u/L | SODIUM [2]: 143.1 MEQ/L | TOTAL BILIRUBIN [2]: 0.2 mg/dL | TOTAL PROTEIN [2]: 6.08 G/DL | URIC ACID [2]: 0.68 mg/dL | ABSOLUTE BASOPHIL [3]: 0 CELLS/uL | ABSOLUTE EOSINOPHIL [3]: 0 CELLS/uL | ABSOLUTE LYMPHOCYTE [3]: 2936 CELLS/uL | ABSOLUTE MONOCYTE [3]: 0 CELLS/uL | ABSOLUTE SEGMENTED NEUTROPHIL [3]: 230.67 CELLS/uL | BASOPHIL [3]: 0% | EOSINOPHIL [3]: 0% | ERYTHROCYTE COUNT [3]: 5.1 x10E6/uL | HEMATOCRIT [3]: 32.43% | HEMOGLOBIN [3]: 12.87 G/DL | LEUKOCYTE COUNT [3]: 3.17 x10E3/uL | LYMPHOCYTE [3]: 92.67% | MEAN CORPUSCULAR HEMOGLOBIN [3]: 25.23 pg | MEAN CORPUSCULAR HEMOGLOBIN CONCENTRATION [3]: 39.67 G/DL | MEAN CORPUSCULAR VOLUME [3]: 63.63 fL | MONOCYTE [3]: 0% | NEUTROPHIL [3]: 7.33% | NUCLEATED RED BLOOD CELLS [3]: 0 /100WBC | ALANINE AMINOTRANSFERASE [3]: 53.33 u/L | ALKALINE PHOSPHATASE [3]: 266 u/L | ASPARTATE AMINOTRANSFERASE [3]: 81.33 u/L | BLOOD UREA NITROGEN [3]: 16.67 mg/dL | CARBON DIOXIDE [3]: 31.33 mmol/L | CHOLESTEROL [3]: 79.33 mg/dL | CREATINE PHOSPHOKINASE [3]: 216.67 u/L | CREATININE [3]: 0.18 mg/dL | GLUCOSE [3]: 145 mg/dL | LACTATE DEHYDROGENASE [3]: 77.67 u/L | LIPASE [3]: 24 u/L | SODIUM [3]: 143.8 MEQ/L | TOTAL BILIRUBIN [3]: 0.1 mg/dL | TOTAL PROTEIN [3]: 5.87 G/DL | URIC ACID [3]: 0.5 mg/dL

Source: ChEMBL document CHEMBL3885881, “DrugMatrix”
